Assay results reported in patent US9914730B2, “Azaquinazoline inhibitors of Atypical protein Kinase C” (Ignyta, Inc., priority 2012, dated 2018).
Counter-ions that a name gives are not always drawn.

Molecular target: T1, full-length human PKCι (Homo sapiens, UniProt P41743)
T1 construct: Recombinant, full-length human PKCι expressed in Sf21 insect cells is also commercially available; purchased; host or cells: Sf21 insect cells
T1 sequence (P41743 1-596): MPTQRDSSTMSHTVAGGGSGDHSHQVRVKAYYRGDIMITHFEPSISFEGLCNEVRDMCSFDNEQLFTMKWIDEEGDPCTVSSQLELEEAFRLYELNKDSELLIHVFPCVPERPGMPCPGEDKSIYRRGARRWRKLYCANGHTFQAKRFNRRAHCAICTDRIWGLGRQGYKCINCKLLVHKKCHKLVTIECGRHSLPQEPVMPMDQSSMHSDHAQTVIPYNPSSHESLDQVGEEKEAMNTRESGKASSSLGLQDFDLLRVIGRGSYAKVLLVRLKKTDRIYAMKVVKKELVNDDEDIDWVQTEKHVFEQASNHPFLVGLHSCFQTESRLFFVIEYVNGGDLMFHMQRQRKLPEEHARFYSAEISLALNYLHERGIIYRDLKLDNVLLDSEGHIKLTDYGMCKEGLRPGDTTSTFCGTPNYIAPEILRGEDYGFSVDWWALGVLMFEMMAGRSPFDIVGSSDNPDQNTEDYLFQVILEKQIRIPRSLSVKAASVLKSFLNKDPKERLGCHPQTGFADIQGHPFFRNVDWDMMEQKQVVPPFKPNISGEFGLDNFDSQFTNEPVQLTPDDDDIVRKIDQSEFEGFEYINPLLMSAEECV
Test: PKCι IC50 IMAP assay, full-length PKCι at 150 μM ATP
Assay type: biochemical
Settings: read-out: IC50 in IMAP assay against full length PKCi at 150 μM ATP
Summary of the method: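 Dose-response IC50 values come from IMAP fluorescence polarisation after 60 min room-temperature turnover of 100 nM FAM peptide by ~15 pM insect-cell-expressed full-length PKCι at 150 μM ATP (5× KM^APP), normalised to no-compound and no-enzyme controls.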

| Compound | IC50 [nM] |
| --- | --- |
| CN1CCN(c2cccc(Nc3cc(-c4nc(N5CCNCC5)c5c(C6CC6)cncc5n4)ccn3)c2)CC1 [Example 681, [4-(5-Cyclopropyl-4-piperazin-1-yl-pyrido[3,4-d]pyrimidin-2-yl)-pyridin-2-yl]-[3-(4-methyl-piperazin-1-yl)-phenyl]-amine] | < 100 |
| NC(=O)COc1ccc(Nc2cc(-c3nc(N[C@@H]4CCNC4)c4ccncc4n3)ccn2)cc1 [Example 310, 2-(4-{4-[4-((R)-Pyrrolidin-3-ylamino)-pyrido[3,4-d]pyrimidin-2-yl]-pyridin-2-ylamino}-phenoxy)-acetamide] | 100 to 1000 |
| COc1cncc2nc(-c3ccnc(Nc4ccccc4)c3)nc(N3CCC[C@H](O)C3)c12 [Example 425, (S)-1-[5-Methoxy-2-(2-phenylamino-pyridin-4-yl)-pyrido[3,4-d]pyrimidin-4-yl]-piperidin-3-ol] | 1000 to 10000 |
| COc1cncc2nc(-c3ccnc(NC(=O)Cc4ccc(N)cc4)c3)nc(N[C@@H]3CCNC3)c12 [Example 327, 2-(4-Amino-phenyl)-N-{4-[5-methoxy-4-((R)-pyrrolidin-3-ylamino)-pyrido[3,4-d]pyrimidin-2-yl]-pyridin-2-yl}-acetamide] | < 100 |
| CC(=O)Nc1cc(-c2nc(N3CCN[C@H](C(F)(F)F)C3)c3c(C4CC4)cncc3n2)ccn1 [Example 659, N-{4-[5-Cyclopropyl-4-((S)-3-trifluoromethyl-piperazin-1-yl)-pyrido[3,4-d]pyrimidin-2-yl]-pyridin-2-yl}-acetamide] | 100 to 1000 |
| c1cc(-c2nc(N3CCNCC3)c3c(C4CC4)cncc3n2)c2c(n1)NC1(CCCCC1)C2 [Example 1252, 4-(5-cyclopropyl-4-piperazin-1-yl-pyrido[3,4-d]pyrimidin-2-yl)spiro[1,3-dihydropyrrolo[2,3-b]pyridine-2,1′-cyclohexane]] | < 100 |
| COc1cncc2nc(-c3ccnc(Nc4ccccc4)c3)nc(N3CCN[C@@H](CO)C3)c12 [Example 434, {(R)-4-[5-Methoxy-2-(2-phenylamino-pyridin-4-yl)-pyrido[3,4-d]pyrimidin-4-yl]-piperazin-2-yl}-methanol] | < 100 |
| CCn1nc(Nc2cc(-c3nc(N4CCNCC4)c4c(C5CC5)cncc4n3)ccn2)cc1C [Example 780, [4-(5-Cyclopropyl-4-piperazin-1-yl-pyrido[3,4-d]pyrimidin-2-yl)-pyridin-2-yl]-(1-ethyl-5-methyl-1H-pyrazol-3-yl)-amine] | < 100 |
| Fc1ccc(Nc2cc(-c3nc(N4CCNCC4)c4c(Cl)cncc4n3)ccn2)c(F)c1 [Example 255, [4-(5-Chloro-4-piperazin-1-yl-pyrido[3,4-d]pyrimidin-2-yl)-pyridin-2-yl]-(2,4-difluoro-phenyl)-amine] | 100 to 1000 |
| FC(F)(F)c1cc2c(-c3nc(N4CCNC(C(F)(F)F)C4)c4c(C5CC5)cncc4n3)ccnc2[nH]1 (stereo not drawn) [Example 1236, 5-Cyclopropyl-4-(3-trifluoromethyl-piperazin-1-yl)-2-(2-trifluoromethyl-1H-pyrrolo[2,3-b]pyridin-4-yl)-pyrido[3,4-d]pyrimidine] | 1000 to 10000 |
| CN1CCCN(c2nc(-c3ccncc3)nc3cnccc23)CC1 [Example 19, 1-methyl-4-[2-(pyridin-4-yl)-pyrido[3,4-d]-pyrimidin-4-yl]-1,4-diazepane] | 10000 to 40000 |
| COc1cncc2nc(-c3ccnc(Nc4ccc(-c5ccccc5)nc4)c3)nc(N3CCNCC3)c12 [Example 392, [4-(5-Methoxy-4-piperazin-1-yl-pyrido[3,4-d]pyrimidin-2-yl)-pyridin-2-yl]-(6-phenyl-pyridin-3-yl)-amine] | < 100 |
| c1cc(Nc2cc(-c3nc(N4CCC4)c4c(C5CC5)cncc4n3)ccn2)cc(N2CCNCC2)c1 [Example 767, [4-(4-Azetidin-1-yl-5-cyclopropyl-pyrido[3,4-d]pyrimidin-2-yl)-pyridin-2-yl]-(3-piperazin-1-yl-phenyl)-amine] | 100 to 1000 |
| Nc1nccc2c(NC[C@@H](N)Cc3ccccc3)nc(N3CCOCC3)nc12 [Example 1013, N^4-((S)-2-Amino-3-phenyl-propyl)-2-morpholin-4-yl-pyrido[3,4-d]pyrimidine-4,8-diamine] | 100 to 1000 |
| COc1cncc2nc(-c3ccnc(Nc4ccc(CC(N)=O)cc4)c3)nc(N[C@@H]3CCNC3)c12 [Example 326, 2-(4-{4-[5-Methoxy-4-((R)-pyrrolidin-3-ylamino)-pyrido[3,4-d]pyrimidin-2-yl]-pyridin-2-ylamino}-phenyl)-acetamide] | 100 to 1000 |
| NC(=O)N1CCN(c2nc(-c3ccnc(Nc4ccccc4)c3)nc3cncc(C4CC4)c23)CC1 [Example 638, 4-[5-Cyclopropyl-2-(2-phenylamino-pyridin-4-yl)-pyrido[3,4-d]pyrimidin-4-yl]-piperazine-1-carboxylic acidamide] | 100 to 1000 |

Now from value to compound:

| IC50 [nM] | Compound |
| --- | --- |
| 100 to 1000 | OC1CCN(c2nc(-c3ccnc4[nH]c5ccccc5c34)nc3cncc(C4CC4)c23)CC1 [Example 1254, 1-[5-cyclopropyl-2-(9H-pyrido[2,3-b]indol-4-yl)-pyrido[3,4-d]pyrimidin-4-yl]-piperidin-4-ol trifluoroacetic acid salt] |
| < 100 | Fc1ccc(Nc2cc(-c3nc(N4CCCNCC4)c4c(C5CC5)cncc4n3)ccn2)cc1 [Example 699, [4-(5-Cyclopropyl-4-[1,4]diazepan-1-yl-pyrido[3,4-d]pyrimidin-2-yl)-pyridin-2-yl]-(4-fluoro-phenyl)-amine] |
| < 100 | Cc1ccnc(Nc2cc(-c3nc(N4CCNCC4)c4c(C5CC5)cncc4n3)ccn2)c1 [Example 267, [4-(5-Cyclopropyl-4-piperazin-1-yl-pyrido[3,4-d]pyrimidin-2-yl)-pyridin-2-yl]-(4-methyl-pyridin-2-yl)-amine] |
| < 100 | F[C@H]1C[C@@H](Nc2cc(-c3nc(N4CCNCC4)c4c(C5CC5)cncc4n3)ccn2)C1 [Example 703, (+/−)cis-[4-(5-Cyclopropyl-4-piperazin-1-yl-pyrido[3,4-d]pyrimidin-2-yl)-pyridin-2-yl]-(3-fluoro-cyclobutyl)-amine] |
| < 100 | Cc1ccc(F)c(Nc2cc(-c3nc(N4CCNCC4)c4c(C5CC5)cncc4n3)ccn2)c1F [Example 557, [4-(5-Cyclopropyl-4-piperazin-1-yl-pyrido[3,4-d]pyrimidin-2-yl)-pyridin-2-yl]-(2,6-difluoro-3-methyl-phenyl)-amine] |
| < 100 | FC(F)(F)c1cccc(Nc2cc(-c3nc(N4CCNCC4)c4c(C5CC5)cncc4n3)ccn2)c1 [Example 646, [4-(5-Cyclopropyl-4-piperazin-1-yl-pyrido[3,4-d]pyrimidin-2-yl)-pyridin-2-yl]-(3-trifluoromethyl-phenyl)-amine] |
| < 100 | COc1cccc(Nc2cc(-c3nc(N4CCNCC4)c4c(C5CC5)cncc4n3)ccn2)c1F [Example 589, [4-(5-Cyclopropyl-4-piperazin-1-yl-pyrido[3,4-d]pyrimidin-2-yl)-pyridin-2-yl]-(2-fluoro-3-methoxy-phenyl)-amine] |
| < 100 | Cc1ccc(Cl)c(Nc2cc(-c3nc(N4CCNCC4)c4c(C5CC5)cncc4n3)ccn2)c1 [Example 577, (2-Chloro-5-methyl-phenyl)-[4-(5-cyclopropyl-4-piperazin-1-yl-pyrido[3,4-d]pyrimidin-2-yl)-pyridin-2-yl]-Amine] |
| < 100 | CC(C)c1ccc(Nc2cc(-c3nc(N4CCNCC4)c4c(C5CC5)cncc4n3)ccn2)c(F)c1 [Example 714, [4-(5-Cyclopropyl-4-piperazin-1-yl-pyrido[3,4-d]pyrimidin-2-yl)-pyridin-2-yl]-(2-fluoro-4-isopropyl-phenyl)-amine] |
| < 100 | c1cnnc(Nc2cc(-c3nc(N4CCNCC4)c4c(C5CC5)cncc4n3)ccn2)c1 [Example 545, [4-(5-Cyclopropyl-4-piperazin-1-yl-pyrido[3,4-d]pyrimidin-2-yl)-pyridin-2-yl]-pyridazin-3-yl-amine] |
| < 100 | Fc1cc(Cl)cnc1Nc1cc(-c2nc(N3CCNCC3)c3c(C4CC4)cncc3n2)ccn1 [Example 2171, (5-Chloro-3-fluoro-pyridin-2-yl)-[4-(5-cyclopropyl-4-piperazin-1-yl-pyrido[3,4-d]pyrimidin-2-yl)-pyridin-2-yl]-amine] |
| < 100 | Cc1cc2c(-c3nc(N4CCNCC4)c4c(C5CC5)cnc(Cl)c4n3)ccnc2[nH]1 [Example 2092, 8-Chloro-5-cyclopropyl-2-(2-methyl-1H-pyrrolo[2,3-b]pyridin-4-yl)-4-piperazin-1-yl-pyrido[3,4-d]pyrimidine] |
| < 100 | Fc1ccc2c([nH]c3nccc(-c4nc(N5CCNCC5)c5c(C6CC6)cncc5n4)c32)c1F [Example 2036, 4-(5-Cyclopropyl-4-piperazin-1-yl-pyrido[3,4-d]pyrimidin-2-yl)-7,8-difluoro-9H-pyrido[2,3-b]indole] |
| < 100 | Clc1ccccc1Nc1cc(-c2nc(N3CCNCC3)c3c(C4CC4)cncc3n2)ccn1 [Example 477, (2-Chloro-phenyl)-[4-(5-cyclopropyl-4-piperazin-1-yl-pyrido[3,4-d]pyrimidin-2-yl)-pyridin-2-yl]-amine] |
